Measurements taken from patent US10774053B2, “HIV protease inhibitors” (Gilead Sciences, Inc., priority 2017, dated 2020).

These molecules were tested on HIV-1 (IIIB) in MT-4 cells (assay: microbe, parasite or virus in culture). Details: Human immunodeficiency virus 1, IIIB, MT4, MT-4 cells, HIV-1; read-out: MT4 EC50.
Type: cell-based

| Compound | EC50 [nM] |
| --- | --- |
| CC(C)(C)C[C@]1(c2ccc(-n3nccn3)cc2)NC(=N)N([C@H](COC(=O)NC2(C(F)(F)F)CC2)c2ccc(Cl)c(-n3ncnc3C(F)F)c2)C1=O [Compound 226] | 10.6 |
| CC(C)(C)C[C@]1(c2ccc(-c3cnn(C4CC4)n3)c(F)c2F)NC(=N)N([C@H](COC(=O)NC2(C(F)(F)F)CC2)c2ccc(Cl)c(-n3ncnc3C(F)F)c2)C1=O [Compound 227] | 25.4 |
| COc1ccc([C@@]2(CC(C)(C)C)NC(=N)N([C@H](COC(=O)NC3(C(F)(F)F)CC3)c3ccc(Cl)c(-n4ncnc4C(F)F)c3)C2=O)c(F)c1F [Compound 228] | 14.3 |
| CC(C)(C)C[C@]1(c2ccc(-n3cncn3)cc2)NC(=N)N([C@H](COC(=O)NC2(C(F)(F)F)CC2)c2ccc(Cl)c(-n3ncnc3C(F)F)c2)C1=O [Compound 229] | 27.6 |
| C[C@H](NC(=O)OC[C@H](c1ccc(Cl)c(-n2ncnc2C(F)F)c1)N1C(=N)N[C@](CC(C)(C)C)(c2ccc(-c3cnn(C4CC4)n3)cc2)C1=O)C(F)(F)F [Compound 230] | 7.62 |
| CC(C)(C[C@]1(c2ccc(-c3cnn(C(F)F)c3)cc2)NC(=N)N([C@H](COC(=O)NC2(C(F)(F)F)CC2)c2ccc(Cl)c(-n3ncnc3C(F)F)c2)C1=O)C1CC1 [Compound 231] | 12.2 |
| C[C@H](NC(=O)OC[C@H](c1ccc(Cl)c(-n2ncnc2C(F)F)c1)N1C(=N)N[C@](CC(C)(C)C)(c2ccc(-c3cn(C4CC4)nn3)cc2)C1=O)C(F)(F)F [Compound 233] | 13.6 |
| C[C@H](NC(=O)OC[C@H](c1ccc(Cl)c(-n2ncnc2C(F)F)c1)N1C(=N)N[C@](CC(C)(C)C)(c2ccc(-c3cnn(C4CC4)c3)cc2)C1=O)C(F)(F)F [Compound 234] | 9.28 |
| CC(C)(C)C[C@]1(c2ccc(-c3cnn(C(F)F)c3)cc2)NC(=N)N([C@H](COC(=O)NC2CC2)c2ccc(Cl)c(-n3cncn3)c2)C1=O [Compound 235] | 9.61 |
| CC(C)(C)C[C@]1(c2ccc(-c3cnn(C(F)F)c3)cc2)NC(=N)N([C@H](COC(=O)NC2(C)CC2)c2ccc(Cl)c(-n3cncn3)c2)C1=O [Compound 237] | 8.79 |
| Cc1ncn(-c2cc([C@@H](COC(=O)NC3(C)CC3)N3C(=N)N[C@](CC(C)(C)C)(c4ccc(-c5cnn(C(F)F)c5)cc4)C3=O)ccc2Cl)n1 [Compound 238] | 156 |
| CC(C)(C)C[C@]1(c2ccc(-c3cnn(C(F)F)c3)cc2)NC(=N)N([C@H](COC(=O)NC2(C)CC2)c2ccc(Cl)c(-n3cnc(C4CC4)n3)c2)C1=O [Compound 239] | 604 |
| CC(C)(C)C[C@]1(c2ccc(-c3cnn(C(F)F)c3)cc2)NC(=N)N([C@H](COC(=O)N2CC(F)(F)C2)c2ccc(Cl)c(-n3cncn3)c2)C1=O [Compound 240] | 5.06 |
| CC(C)(C)C[C@]1(c2ccc(-c3cnn(C(F)F)c3)cc2)NC(=N)N([C@H](COC(=O)NC(C)(C)C)c2ccc(Cl)c(-n3cncn3)c2)C1=O [Compound 241] | 8.36 |
| CC(C)(C)C[C@]1(c2ccc(-c3cnn(C4CC4)c3)cc2)NC(=N)N([C@H](COC(=O)NC2CC2)c2ccc(Cl)c(-n3cncn3)c2)C1=O [Compound 243] | 9.11 |
| CC(C)(C)C[C@]1(c2ccc(-c3ncccn3)cc2)NC(=N)N([C@H](CO)c2ccc(Cl)c(-n3cncn3)c2)C1=O [Compound 245] | 239 |
| CC(C)(C)C[C@]1(c2ccc(-c3cnn(C(F)F)c3)cc2)NC(=N)N([C@H](CO)c2ccc(Cl)c(-n3cncn3)c2)C1=O [Compound 246] | 84.3 |
| Cc1ncnn1-c1cc([C@@H](COC(=O)NC2(C)CC2)N2C(=N)N[C@](CC(C)(C)C)(c3ccc(-c4cnn(C(F)F)c4)cc3)C2=O)ccc1Cl [Compound 247] | 7.51 |
| CC(C)(C)C[C@]1(c2ccc(-c3cnn(C(F)F)c3)cc2)NC(=N)N([C@H](COC(=O)NC23CC(C(F)(F)F)(C2)C3)c2ccc(Cl)c(-n3cncn3)c2)C1=O [Compound 248] | 70.3 |

Same assay, conditions: MT-4 cells, HIV-1; read-out: MT4 EC50

| Compound | EC50 [nM] |
| --- | --- |
| CC(C)(C)C[C@]1(c2ccc(-c3cn(C4CC4)nn3)cc2)NC(=N)N([C@H](COC(=O)NC2(C(F)(F)F)CC2)c2ccc(Cl)c(-n3ncnc3C(F)F)c2)C1=O [Compound 232] | 18.2 |
